Test results published in US20050032904A1, “Composition and use of allylamine derivatives” (priority 2003, published 2005).

Legend:
[1] = system: hepatoma and colon cancer cells; details: previous studies of the inventors; cited from earlier work
[2] = system: COLO 205 cells; experiment: DNA fragmentation (DNA ladder) by electrophoresis of genomic DNA; format: cell-based, human
Method: Genomic DNAs extracted from TB-treated COLO 205 were examined by gel electrophoresis. […] In FIG. 9, the part of (A) refers to potentiation of ND-induced apoptosis by TB. […] DNA fragmentation was examined at 24 h after drug treatment. In the lanes 2 and 8, cells received mock treatment as controls. The symbols of “M” (in lanes 1 and 7), refer to “DNA size marker.” (B) average tumor volume of DMSO-treated vs. drug-treated nude mice (n=5). (C) tumor weight, (D) animal body weight, and (E) tumor/body weight ratio were measured at the end of experiment. Five samples were analyzed in each group, and values represent the mean±S.E. Comparisons were subjected to ANOVA followed by Fisher's least significant difference test. Significance was accepted at p<0.05. *TB-, ND-, and TB+ND-treated group different from DMSO-treated group. TB+ND-treated group different from TB- or ND-treated group.

[3] = system: COLO 205 tumor xenografts; experiment: Treatment of COLO 205-derived xenografts in vivo; design: species or system nude mouse; details: TB 50 mg/kg, ND 5 mg/kg, intraperitoneal, 3 times per week for 6 weeks
Method: Genomic DNAs extracted from TB-treated COLO 205 were examined by gel electrophoresis. […] DNA fragmentation was examined at 24 h after drug treatment. In the lanes 2 and 8, cells received mock treatment as controls. […] Comparisons were subjected to ANOVA followed by Fisher's least significant difference test. […] Since, retardation of the cell cycle and/or activation of the cellular apoptotic response are two major mechanisms preventing tumor growth, we examined the TB effect on the cell cycle and apoptosis occurrence of the solid tumor derived from the implanted COLO 205. The COLO-205 cells (5×10^6) in 0.1 ml RPMI 1640 were injected subcutaneously between the scapulae of each nude mouse (purchased from National Science Council animal center, Taipei). […]

[4] = system: COLO 205 tumor xenografts; details: previous research; cited from earlier work
[5] = system: malignant cells; details: through abnormal microtubule polymerization; previous study; cited from earlier work

Question: With `CC(=O)N1CCN(c2ccc(OCC3COC(Cn4ccnc4)(c4ccc(Cl)cc4Cl)O3)cc2)CC1` (stereo not drawn) [ketoconazole] as the molecule, how does the “cell cycle arrest and apoptosis” value [1] read?
Answer: The value was “induced cell cycle arrest at the G0/G1 phase of the cell cycle and the occurrence of apoptosis”.

Question: Which results are given for `COC(=O)Nc1nc2ccc(C(=O)c3cccs3)cc2[nH]1` [ND, nocodazole]?
Answer: ND concentration at which DNA ladder patterns characteristic of apoptosis are displayed ([2]; ND alone, 24 h after drug treatment): ≥ 50 nM; ND concentration inducing the DNA ladder pattern ([2]; in the presence of 10 μM TB, 24 h): 1 nM; tumor volume vs. vehicle (DMSO plus peanut oil) [3]: reduction in tumor volume

Question: For `COC1=CC(=O)C[C@@H](C)[C@]12Oc1c(Cl)c(OC)cc(OC)c1C2=O` [griseofulvin], which “effect on anti-cancer activities of nocodazole in vivo” value [4] is on record?
Answer: The value was “potentiates the anti-cancer activities of nocodazole”.

Question: What about the “apoptosis and cell cycle arrest” value [5] of the same molecule?
Answer: The value was “induced apoptosis and cell cycle arrest at the G2/M phase”.
